The values below come from patent US12421257B2, “Compositions and methods for inhibiting group II intron RNA” (YALE UNIVERSITY, priority 2018, dated 2025).

In one experiment the test system is HEK-293T cells. The experiment can be described thus: Cytotoxicity in HEK-293T cells (Cell Titer Glo). The format is cell-based, human. Conditions: Homo sapiens, cytotoxicity, 24 hours with compound, read-out: IC50 HEK-293.
Another experiment has as its system C. parapsilosis. Briefly: MIC determination against C. parapsilosis. Format: cell-based, Candida parapsilosis. The conditions noted are these: RPMI-1640, 35° C. or 37° C., turbidity after 24 and 48 hours; for MIC: Lodderomyces parapsilosis. A digest of the protocol: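 Broth microdilution in RPMI-1640 with C. parapsilosis at 0.5×10^3 to 2.5×10^3 CFU/mL; test compounds 0.25-128 μg/ml final, 1% DMSO. Plates incubated at 35° C or 37° C, turbidity read visually at 24 and 48 h. MIC = lowest concentration without visible growth; triplicates.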

The test system of experiment [1] is ai5γ group II intron (D135 ribozyme). Briefly: Fluorescent D135 ribozyme cleavage assay (IC50). The format is biochemical, Saccharomyces cerevisiae. The conditions noted are these: for IC50: D135 ribozyme cleavage of substrate 17/2 DL, 100 mM MgCl2, 500 mM KCl, 37° C., 10 minutes. A digest of the protocol: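 D135 ribozyme (20 nM) with double-labeled substrate 17/2 DL (20 nM) in 50 mM MOPS pH 7.0, 100 mM MgCl2, 0.5 M KCl; 19 inhibitor concentrations, 5 nM–1 mM, 10 min at 37 °C, EDTA quench, fluorescence read. Triplicates fit to 4-parameter logistic for IC50; mean±s.e.m.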

Another experiment concerns the target ai5γ group II intron. Briefly: Radioanalytic self-splicing assay of SE RNA (Ki). The format is biochemical, Saccharomyces cerevisiae. The conditions noted are these: 8 mM MgCl2, 100 mM KCl, pH 7.5, 30° C. Here is the method: Internally labeled SE RNA (2 nM) was incubated with various concentrations of inhibitor compound under near-physiological conditions (in 50 mM MOPS, pH 7.5, 8 mM MgCl2, 100 mM KCl) at 30° C. Aliquots at different time points were quenched and analyzed on 5% denaturing polyacrylamide gel as previously described (Daniels et al., 1996, Journal of molecular biology, 256:31-49). Data were fit to a single-exponential equation to determine the first order rate constants (kobs). The latter were then plotted against the concentration of the inhibitor and fit to the equation for non-competitive inhibition to determine Ki values: kobs=kmax/(1+[I]/Ki), where kobs and kmax are the first order rate constants measured in the presence and in the absence of the inhibitor, respectively, [I] is the concentration of the inhibitor and Ki is the inhibition constant. Experiments were performed four times for API-014, three times for APY-090, Intronistat A, and Intronistat B and twice for the remaining compounds to ensure reproducibility. Data represent average±s.e.m.

For experiment [2], the system named is C. parapsilosis COX1 group IIB intron. Briefly: Group II intron splicing in C. parapsilosis by qRT-PCR. The format is cell-based, Candida parapsilosis. Conditions: 32 μg/mL. In general terms: In qPCR the cycle at which signal appears reflects the starting amount.
A further experiment deals with S. cerevisiae. The experiment can be described thus: Yeast respiration assay in S. cerevisiae (MIC in YPD / YPGE). The format is cell-based, Saccharomyces cerevisiae. Conditions: 30° C.; for MIC: Saccharomyces cerevisiae. As for the experimental part: Yeast respiration assays were conducted either in liquid YPD media (BD Bacto Yeast Extract, BD Bacto Peptone, 2% glucose) or in YPGE media (BD Bacto Yeast Extract, BD Bacto Peptone, 3% glycerol, 3% ethanol), essentially as described for the antifungal MIC assays (see below). To initiate these experiments, 100 μl of a fresh stock solution was prepared for each compound (3.2 mg/ml for Amphotericin B and 12.8 mg/ml for each test compounds) in DMSO. This concentrated stock solution was placed in the first well of 12-well row on a 96-well plate. The subsequent nine wells in this row contained 50 μl of DMSO for serial dilution. From the first well, 50 μl of the compound stock was withdrawn, transferred to the second well and mixed. This process was repeated from the second and subsequent wells, resulting in a 1:2 serial dilution of the stock into DMSO. Wells 11 and 12 contained DMSO only, to be used as no compound control and sterility control, with no inoculum added, respectively. After preparing this plate, 2.5 μl from each of the 12 wells was transferred to the wells of a separate 96-well plate, each of which contained 122.5 μl of YPD or YPGE medium, resulting in a set of serial dilutions of compound into growth media in a volume of 125 μl. Then 50 μl from each of these dilutions were transferred onto a third 96-well plate (the assay plate) and mixed with an equal volume (50 μl) of freshly prepared yeast inoculum in YPD or YPGE medium set to provide 0.5×10^3 to 2.5×10^3 colony forming units per 1 mL (wells 1-11), or YPD/YPGE alone (sterility control, well 12). The final compound concentration range of the assay was 0.25-128 μg/ml for test compounds and 0.0625-32 μg/ml for Amphotericin B. The final concentration of DMSO was 1%. Plates were incubated at 30° C. and visually analyzed for turbidity after 24 and 48 hours of incubation. The lowest compound concentration at which no growth was apparent is reported as the MIC (Table 1). All experiments were performed in triplicate.

≈ marks a conversion by molar mass, not a printed value. Entries after “also recorded” stand apart in the source; their conditions may differ. Where two headings read alike, the source gives them in different places. Some results are limits rather than exact numbers.

For orientation: IC50 means the midpoint of a concentration-inhibition curve. By MIC is commonly meant the lowest concentration that inhibits growth of the organism. As usually defined, the Ki is a measure of affinity in units of concentration, obtained from inhibition or displacement. A higher Ki goes with a looser hold on the target. `COc1ccc(/C=C2\Oc3cc(O)cc(O)c3C2=O)cc1OC` [APY-001, (Z)-2-(3,4-Dimethoxybenzylidene)-4,6-dihydroxybenzofuran-3(2H)-one]: the IC50 in the experiment on HEK-293T cells is over 128 µg/mL; in experiment [1], over 100 µM. This compound also had an MIC in the experiment on C. parapsilosis of over 128 µg/mL. Further, the “In vitro inhibitory activity, SAR statement (in words)” value in experiment [1] (relative to parent scaffold) is “nearly complete loss of activity”. This compound also had a Ki on ai5γ group II intron of over 1000 µM. In addition, in experiment [2], the “Splicing of C. parapsilosis COX1 in vivo (in words)” value is “this effect was not observed; also recorded: inactive”.

`O=C1/C(=C/c2cc(O)c(O)c(O)c2)Oc2cccc(O)c21` [APY-019, (Z)-4-Hydroxy-2-(3,4,5-trihydroxybenzylidene)benzofuran-3(2H)-one]: in the experiment on HEK-293T cells, the IC50 is over 32 µg/mL. In addition, the minimum inhibitory concentration (MIC) against C. parapsilosis was 16 µg/mL (≈ 55.9 µM); in the experiment with S. cerevisiae (YPD medium, read-out: MIC in YPD (glucose)), over 128 µg/mL; with S. cerevisiae (YPGE medium, read-out: MIC in YPGE (glycerol)) it was 64 µg/mL (≈ 224 µM).

Take `C[C@@H]1[C@H](O)[C@@H](C)/C=C/C=C/C=C/C=C/C=C/C=C/C=C/[C@H](O[C@@H]2O[C@H](C)[C@@H](O)[C@H](N)[C@@H]2O)C[C@@H]2O[C@](O)(C[C@@H](O)C[C@@H](O)[C@H](O)CC[C@@H](O)C[C@@H](O)CC(=O)O[C@H]1C)C[C@H](O)[C@H]2C(=O)O` [Amphotericin B, reference compound]: the “MIC C. parapsilosis” value with C. parapsilosis was in the range of 0.5 to 1 µg/mL. Also, in the experiment on S. cerevisiae (YPD medium), the “MIC in YPD (glucose)” value stood at 2 µg/mL (≈ 2.16 µM). Further, the “MIC in YPGE (glycerol)” value with S. cerevisiae (YPGE medium) was found to be 16 µg/mL (≈ 17.3 µM).

For the compound `CCN(CC)CCNC(=O)c1ccc2oc(C(=O)c3cc(O)c(O)c(O)c3)cc2c1` [NED-2019, N-(2-(diethylamino)ethyl)-2-(3,4,5-trihydroxybenzoyl)-benzofuran-5-carboxamide], the IC50 was over 64 µg/mL in the experiment on HEK-293T cells and 4.8 ± 0.5 µM in experiment [1]. Moreover, the MIC in the experiment on C. parapsilosis stood at 8 µg/mL (≈ 19.4 µM). The compound also gave an inhibition constant (Ki) at ai5γ group II intron of 0.49 ± 0.03 µM.

Turning to `O=C(N/N=C/c1ccc(-c2ccc(Br)cc2)o1)c1cc(O)c(O)c(O)c1` [NED-2038, (E)-N′-((5-(4-bromophenyl)furan-2-yl)methylene)-3,4,5-trihydroxybenzohydrazide], the figures for the IC50 (with HEK-293T cells; in experiment [1]) were 1.1 µg/mL and 2.7 ± 0.5 µM, respectively. In the experiment on C. parapsilosis, the minimum inhibitory concentration (MIC) turned out to be 32 µg/mL (≈ 76.7 µM). On ai5γ group II intron, the inhibition constant Ki was determined as 1.7 µM.
